Literature values, collected in patent publication US20030114415A1, “Compositions and methods for treating and preventing memory impairment using citicoline” (priority 2001, published 2003).
Where two headings read alike, the source gives them in different places.

Assays:
[1] = human; 1000 mg citicoline per day
[2] = test system: stroke and head trauma patients
[3] = rat; 500 mg/kg/day citicoline

In the case of `C[N+](C)(C)CCOP(=O)(O)OP(=O)([O-])OC[C@H]1O[C@@H](n2ccc(N)nc2=O)[C@H](O)[C@@H]1O` [citicoline, cytidine-5′-diphosphocholine], the plasma choline concentration [1] is listed as 1.5 ng/mL, the “negative side effects, including dizziness” value ([2]; patients, 500 mg per day) is listed as “minimizing any negative side effects” and the tolerability ([2]; stroke and head trauma patients, 250 mg/day to 1000 mg/day for several weeks) is listed as “tolerated citicoline well”. The plasma choline concentration [3] was 1.5 ng/mL, the “absorption when administered orally” value (oral) was “absorbed almost completely” and the “bioavailability when administered orally” value (oral compared with intravenous) was “approximately the same as when administered intravenously”.
